The source made the active and inactive calls. The rule behind the calls is not given here.
What follows are molecules tested against Ubiquitin-conjugating enzyme E2 N (Homo sapiens) (UniProt P61088) (assay: NMR detection of UBE2N ligand binding – biophysical, purified protein (AID 1552)). Conditions: NMR binding to purified UBE2N.
Ubiquitin-conjugating enzyme E2 N (Homo sapiens), sequence (P61088 whole entry, looked up): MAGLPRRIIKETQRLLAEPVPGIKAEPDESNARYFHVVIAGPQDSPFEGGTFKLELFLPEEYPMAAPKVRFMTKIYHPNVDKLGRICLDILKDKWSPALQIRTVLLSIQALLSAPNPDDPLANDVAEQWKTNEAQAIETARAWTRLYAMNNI

Row | Structure (SMILES) | Kd
1 | O=C1CC(c2ccccc2)n2ncnc2N1 (configuration not stated) | > 4 mM (inactive)
2 | NCc1ccccc1N1CCOCC1 | > 4 mM (inactive)
3 | C#CCCCCCCCCCCCC(=O)CC(O)COC(C)=O (configuration not stated) | > 4 mM (inactive)
4 | CCC(=O)Nc1ccc(-c2nn3c(C)nnc3s2)cc1 | > 4 mM (inactive)
5 | NC(=S)NC1CCS(=O)(=O)C1 (configuration not stated) | > 4 mM (inactive)
6 | Cc1ccccc1-n1c(-c2cccnc2)n[nH]c1=S | > 4 mM (inactive)
7 | O=C1Nc2ccccc2C12OCCO2 | > 4 mM (inactive)
8 | OC1CCN(c2nccc(C(F)(F)F)n2)CC1 | > 4 mM (inactive)
9 | Fc1ccc(Br)cc1/C=N/n1cnnc1 | > 4 mM (inactive)
10 | COc1ccc(-c2cc(=O)c3c(OC(C)=O)cc(OC(C)=O)cc3o2)cc1 | > 4 mM (inactive)
11 | CC(=O)Oc1c(-c2ccccc2)oc2c(CC=C(C)C)c3c(c(OC(C)=O)c2c1=O)C=CC(C)(C)O3 | > 4 mM (inactive)
12 | Nc1ccc(OC(F)(F)F)cc1 | > 4 mM (inactive)
13 | O=S(=O)(c1cccc(Cl)c1)N1CCCC1 | > 4 mM (inactive)
14 | O=C(O)c1ccnc2ccccc12 | > 4 mM (inactive)
15 | Cc1ccc(NC(=O)c2ccccc2)s1 | > 4 mM (inactive)
16 | COC(=O)C1=CCCN(C)C1 | > 4 mM (inactive)
17 | NCc1ccc2occc2c1 | > 4 mM (inactive)
18 | COc1ccc2[nH]cc(CCN(C)C)c2c1 | > 4 mM (inactive)
19 | COC(=O)c1sc(N)nc1C | > 4 mM (inactive)
20 | NC(=O)Cn1cnc2ccccc21 | > 4 mM (inactive)
21 | N#Cc1nc(N2CCCCC2)nc(N2CCOCC2)n1 | > 4 mM (inactive)
22 | Nc1ccc2[nH]ncc2c1 | > 4 mM (inactive)

Row | Structure (SMILES) | Kd
23 | Nc1ncnc2c1ncn2CCOc1ccccc1 | > 4 mM (inactive)
24 | O=C(Nc1ccc(-c2nnco2)cc1)c1ccccc1 | > 4 mM (inactive)
25 | Cc1oc2nc3c(c(=O)[nH]c(=O)n3C)n2c1C | > 4 mM (inactive)
26 | O=C(Nc1ccccc1)c1cccc(N2C(=O)CCC2=O)c1 | > 4 mM (inactive)
27 | OCCN1CCN(C(=S)c2ccc(Cl)cc2)CC1 | > 4 mM (inactive)
28 | O=c1[nH]cc(N=Cc2ccc(F)cc2)c(=O)[nH]1 | > 4 mM (inactive)
29 | NC(=O)c1ccc(Cl)c(N2C(=O)CCC2=O)c1 | > 4 mM (inactive)
30 | Nc1ccc2c(c1)COc1ccccc1O2 | > 4 mM (inactive)
31 | CC[C@@]1(O)C(=O)OCc2c1cc1n(c2=O)Cc2cc3ccccc3nc2-1 | > 4 mM (inactive)
32 | CN1CCCCC1c1ccc(-c2cccnc2)nc1 (configuration not stated) | > 4 mM (inactive)
33 | O=C1CCCc2c1nc(-c1ccccc1)n2O | > 4 mM (inactive)
34 | Cc1cc(C)n(-c2ccc(Cl)nn2)n1 | > 4 mM (inactive)
35 | COc1cc2nc[nH]c(=O)c2cc1OC | > 4 mM (inactive)
36 | O=C(O)c1cncc(-c2cccs2)c1 | > 4 mM (inactive)
37 | O=C1COc2ccc(C(=O)c3ccccc3)cc2CN1 | > 4 mM (inactive)
38 | CC(=O)OCC(OC(C)=O)C(OC(C)=O)C(OC(C)=O)C(OC(C)=O)C(COC(C)=O)OC(C)=O (configuration not stated) | > 4 mM (inactive)
39 | O=C(NCc1ccco1)c1ccc(Br)s1 | > 4 mM (inactive)
40 | Cc1ccc2nc(SCC(=O)O)nc(C)c2c1 | > 4 mM (inactive)
41 | CC(=O)OC/C=C(\C)CC/C=C(\C)CC/C=C(\C)CC/C=C(\C)CC/C=C(\C)CC/C=C(\C)CC/C=C(\C)CC/C=C(\C)CCC=C(C)C | > 4 mM (inactive)
42 | O=C1C[C@@H](c2ccccc2)Oc2cc(O)cc(O)c21 | > 4 mM (inactive)
43 | CC12CN3CC(C)(CN(C1)C3c1cccs1)C2O (configuration not stated) | > 4 mM (inactive)
44 | CCN1CCn2c1nc(N1CCOCC1)nc2=O | > 4 mM (inactive)

Row | Structure (SMILES) | Kd
45 | CC[C@@]1(O)C[C@H](O[C@H]2C[C@H](N(C)C)[C@H](O)[C@H](C)O2)c2c(cc3c(c2O)C(=O)c2c(O)cccc2C3=O)[C@H]1C(=O)OC | > 4 mM (inactive)
46 | CC(C)(C)NC(=O)N1CCC(C(=O)O)CC1 | > 4 mM (inactive)
47 | CN(C)c1nc(N)nc(-c2nc3ccccc3s2)n1 | > 4 mM (inactive)
48 | Cc1cc(C)n(CCC(=O)O)n1 | > 4 mM (inactive)
49 | C=C(C)CSc1nc2nc(C)cc(C)n2n1 | > 4 mM (inactive)
50 | CN(C)S(=O)(=O)c1ccc(NC=O)cc1 | > 4 mM (inactive)
51 | NC1CN2CCC1CC2 (configuration not stated) | > 4 mM (inactive)
52 | c1cncc(Cn2cccc2)c1 | > 4 mM (inactive)
53 | CSc1nnc2c(n1)OC(C)=Nc1ccccc1-2 | > 4 mM (inactive)
54 | CNC(=S)Nc1ccc(OC)cc1C | > 4 mM (inactive)
55 | C=CC(C1=CC(=O)C(OC)=CC1=O)c1ccc(O)cc1 (configuration not stated) | > 4 mM (inactive)
56 | S=c1oc(-c2ccncc2)nn1CCc1ccncc1 | > 4 mM (inactive)
57 | O=C(O)CC1Sc2ccccc2NC1=O (configuration not stated) | > 4 mM (inactive)
58 | Nc1ccc(C(=O)NCC2CCCO2)cc1 (configuration not stated) | > 4 mM (inactive)
59 | CCNS(=O)(=O)c1ccc(OC)c(C)c1 | > 4 mM (inactive)
60 | CC(C)=CCc1c2c(c(O)c3c(=O)c(O)c(-c4ccccc4)oc13)C=CC(C)(C)O2 | > 4 mM (inactive)
61 | CC(NC(=O)c1cccnc1)c1ccc2c(c1)OCO2 (configuration not stated) | > 4 mM (inactive)
62 | OCc1ccc2c(c1)OCCO2 | > 4 mM (inactive)
63 | O=c1[nH]cc(NC(=S)N2CCOCC2)c(=O)[nH]1 | > 4 mM (inactive)
64 | CN(C)c1nc(N2CCOCC2)nc(N2CCOCC2)n1 | > 4 mM (inactive)
65 | NCc1cc2ccccc2s1 | > 4 mM (inactive)
66 | NC(=O)c1cccc2c(=O)oc3ccccc3c12 | > 4 mM (inactive)

Row | Structure (SMILES) | Kd
67 | O=c1c2ccccc2[nH]c2ncccc12 | > 4 mM (inactive)
68 | CC(=O)O[C@@H]1CC2C(C)(C)[C@H](O)C[C@H](O)[C@]2(C)C2CC[C@@]3(C)C(=CC(=O)O[C@H]3c3ccoc3)[C@@]21C (some centres not stated) | > 4 mM (inactive)
69 | NC(=O)c1ccsc1NC(=O)c1cccnc1 | > 4 mM (inactive)
70 | Nc1ccc(-c2csnn2)cc1 | > 4 mM (inactive)
71 | Cc1noc(C)c1C(=O)N1CCc2ccccc2C1 | > 4 mM (inactive)
72 | CN(C(=O)NC1CCS(=O)(=O)C1)C1CCCCC1 (configuration not stated) | > 4 mM (inactive)
73 | CNc1nc(N)c(C(=O)C(C)(C)C)s1 | > 4 mM (inactive)
74 | O=C(NN1CCOCC1)c1ccccc1F | > 4 mM (inactive)
75 | NC(=O)c1oc2ccccc2c1N | > 4 mM (inactive)
76 | O=C(O)CCCCCCCCCCCCC1C=CCC1 (configuration not stated) | > 4 mM (inactive)
77 | CC(=O)Nc1ccccc1-c1ccccc1NC(C)=O | > 4 mM (inactive)
78 | O=C(O)c1cccnc1N1CCOCC1 | > 4 mM (inactive)
79 | O=Cc1c(N2CCOCC2)nc2ccccn2c1=O | > 4 mM (inactive)
80 | CC1CC2(NC(=O)NC2=O)C(C)CN1C (configuration not stated) | > 4 mM (inactive)
81 | Cn1ccc(C(=O)NC(=S)NN2CCOCC2)n1 | > 4 mM (inactive)
82 | Nc1nnc(SCc2ccc3c(c2)OCO3)s1 | > 4 mM (inactive)
83 | Cc1nnsc1C(=O)Nc1ccccn1 | > 4 mM (inactive)
84 | Cc1ccc(NC(=O)/C=C2\SC(=O)NC2=O)cc1 | > 4 mM (inactive)
85 | COc1ccccc1-c1nc(=S)[nH][nH]1 | > 4 mM (inactive)
86 | COc1cc2c(cc1OC)[C@@H]1C(=O)c3ccc4c(c3O[C@@H]1CO2)CC(C(C)C)O4 (some centres not stated) | > 4 mM (inactive)
87 | CCOC(=O)CN1C(=O)c2ccccc2C1=O | > 4 mM (inactive)
